Laboratory results taken from article PMC4965148 (PLoS ONE, 2016).
Several values for one entry are separate records, joined by “and”; a condition that tells them apart may be missing. Equal values may be shown once. Read-outs that look alike come from different tables or passages of the source.

Legend:
[1] = biological target: T1, rat α1β1δε nAChR (Rattus norvegicus, UniProt P09660+P25108+P25109+P25110); assay: Ca2+ flux (FLIPR) agonist/antagonist assay; format: cell-based
T1 construct: expressed in transfected cells; host or cells: HEK293 (made by Bristol-Myers Squibb)

[2] = biological target: HEK293/Human α7 nAChR (Homo sapiens, UniProt P36544); assay: [3H]-A-585539 filtration binding; parameters: expressed in transfected cells
[3] = biological target: T2, rat α3β4 nAChR (Rattus norvegicus, UniProt P04757+P12392); assay: Ca2+ flux (FLIPR) agonist/antagonist assay; format: cell-based
T2 construct: expressed in transfected cells; host or cells: HEK293 (made by Bristol-Myers Squibb)

[4] = biological target: T3, rat α4β2 nAChR (Rattus norvegicus, UniProt P09483+P12390); assay: Ca2+ flux (FLIPR) agonist/antagonist assay; format: cell-based
T3 construct: expressed in transfected cells; host or cells: HEK293 (made by Bristol-Myers Squibb)

[5] = biological target: T4, HEK293/Human 5-HT3A (Homo sapiens, UniProt P46098); assay: Ca2+ flux (FLIPR) 5-HT3A antagonist assay; format: cell-based
T4 construct: expressed in transfected cells; host or cells: HEK293 (made by Bristol-Myers Squibb)
T4 sequence (P46098 24-478): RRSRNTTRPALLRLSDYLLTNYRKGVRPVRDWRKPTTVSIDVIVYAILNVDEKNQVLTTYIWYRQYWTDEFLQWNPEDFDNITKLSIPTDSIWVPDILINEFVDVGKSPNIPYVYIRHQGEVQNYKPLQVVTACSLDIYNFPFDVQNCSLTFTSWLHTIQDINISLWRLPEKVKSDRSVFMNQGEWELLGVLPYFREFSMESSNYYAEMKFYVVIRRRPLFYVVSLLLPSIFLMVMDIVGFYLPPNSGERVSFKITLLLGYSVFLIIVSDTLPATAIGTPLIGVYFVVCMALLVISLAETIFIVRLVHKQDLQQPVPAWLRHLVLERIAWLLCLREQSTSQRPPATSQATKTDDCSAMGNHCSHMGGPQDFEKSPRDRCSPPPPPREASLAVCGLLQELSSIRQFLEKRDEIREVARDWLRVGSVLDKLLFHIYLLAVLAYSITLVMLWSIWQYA
Method: Functional activity was examined using Ca^2+-sensitive, dye-based, microfluorometric assays read on the FLIPR Tetra plate reader platform (Molecular Devices, CA, USA). Cells were plated in 384-well black, clear-bottomed Greiner poly-D-lysine coated plates at a density of ~25 K cells/well and incubated at 29°C for 48 h. Prior to assay, media contents were removed and cells incubated in assay buffer containing 5μM final Fluo-4 dye for 90 min. For nAChR assays, the dye-loading buffer was HBSS (#14175 Life Technologies) supplemented with 20 mM HEPES, 0.5 mM CaCl2, 1 mM MgCl2 and 10 μM atropine (final concentration). Test compounds were solubilized in DMSO and serially diluted in NUNC 384-well plates prior to addition of assay buffer (5.3 mM KCl + 140 mM NaCl + 20 mM Hepes + 25 mM CaCl2 + 1 mM MgCl2 + 10 μM atropine final concentration). Compounds diluted in assay buffer were added to the assay plate by the FLIPR and read for approximately 2 min. […] For 5-HT3A antagonist studies, the dye loading and compound diluent buffer was HBSS (#14025 Life Technologies) supplemented with 20 mM HEPES (final concentration) and the concentration of 5-HT used in the assay was 2 μM. Offline transformation of concentration response data was done using a 4 parameter logistic fit using a Bristol-Myers Squibb proprietary informatics software suite.

[6] = biological target: Rat Brain α7 nAChR (Rattus norvegicus, UniProt Q05941); assay: [3H]-A-585539 filtration binding
[7] = biological target: T5, HEK293/human α7 nAChR cells (Homo sapiens, UniProt P36544); assay: Whole cell voltage clamp electrophysiology; format: cell-based; conditions: for Net Charge (Current Area) normalized to 300 µM ACh / Peak Current normalized to 3 mM ACh: individual cells
T5 construct: expressed in transfected cells
Method: (§1) Whole-cell voltage clamp studies were conducted on HEK293/rat α7 or HEK293/human α7 nAChR cells. […] Atropine (1 μM) was included in the bathing solution. […] Cells were voltage clamped at a holding potential of -90 mV. Using the Dynaflow microfluidic perfusion system (Cellectricon; flow 26 μl/min) responses to a 300 ms application of ACh or α7 nAChR agonists were measured. Currents were filtered at 2 kHz and sampled at 10 kHz using an EPC-9 amplifier and HEKA Pulse/Patchmaster software. […] The peak current amplitude and net charge crossing the membrane (i.e. the area under the current response curve) induced by agonist application were measured using Clampfit (pClamp Suite) and normalized to the maximal response induced by ACh (3 mM ACh for peak current amplitude and 300 μM ACh for net charge).

[8] = biological target: α7 nAChR; conditions: read-out: reported Ki; cited from earlier work
[9] = biological target: T6, human 5-HT3A receptors (Homo sapiens, UniProt P46098); assay: biochemical
T6 sequence (P46098 24-478): T4 sequence (P46098 24-478)

[10] = biological target: T7, HEK293/rat α7 nAChR cells (Rattus norvegicus, UniProt Q05941); assay: Whole cell voltage clamp electrophysiology; format: cell-based; conditions: for Net Charge (Current Area) normalized to 300 µM ACh / Peak Current normalized to 3 mM ACh: individual cells
T7 construct: expressed in transfected cells
Method: as §1

[11] = FLIPR agonist mode, read-out: agonist EC50 at α1β1δε nAChR
[12] = FLIPR agonist mode, read-out: agonist EC50 at α3β4 nAChR
[13] = FLIPR agonist mode, read-out: agonist EC50 at α4β2 nAChR
[14] = HEK293/Human 5-HT3A Mean ± SD IC50, Ca2+ flux (FLIPR), antagonism of 2 μM 5-HT
[15] = Human 5-HT3A IC50 values (individual), FLIPR, individual determinations
[16] = Ca2+ flux (FLIPR), antagonism of 2 μM 5-HT, read-out: HEK293/Human 5-HT3A Mean ± SD IC50
[17] = FLIPR, individual determinations, read-out: Human 5-HT3A IC50 values (individual)

T2 sequence (P04757 26-499): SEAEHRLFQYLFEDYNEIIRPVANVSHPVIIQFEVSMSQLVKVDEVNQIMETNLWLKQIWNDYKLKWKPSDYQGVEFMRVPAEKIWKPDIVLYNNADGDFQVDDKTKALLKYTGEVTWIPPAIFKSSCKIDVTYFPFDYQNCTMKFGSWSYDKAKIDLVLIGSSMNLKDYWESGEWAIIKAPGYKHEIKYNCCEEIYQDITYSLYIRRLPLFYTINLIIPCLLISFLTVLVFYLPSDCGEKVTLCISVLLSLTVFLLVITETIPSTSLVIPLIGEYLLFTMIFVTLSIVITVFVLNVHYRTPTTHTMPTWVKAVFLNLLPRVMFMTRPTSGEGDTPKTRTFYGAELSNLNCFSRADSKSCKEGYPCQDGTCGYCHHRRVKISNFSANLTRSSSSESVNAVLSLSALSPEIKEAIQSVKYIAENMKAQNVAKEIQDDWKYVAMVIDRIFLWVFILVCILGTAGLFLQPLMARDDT
T2 sequence (P12392 21-495): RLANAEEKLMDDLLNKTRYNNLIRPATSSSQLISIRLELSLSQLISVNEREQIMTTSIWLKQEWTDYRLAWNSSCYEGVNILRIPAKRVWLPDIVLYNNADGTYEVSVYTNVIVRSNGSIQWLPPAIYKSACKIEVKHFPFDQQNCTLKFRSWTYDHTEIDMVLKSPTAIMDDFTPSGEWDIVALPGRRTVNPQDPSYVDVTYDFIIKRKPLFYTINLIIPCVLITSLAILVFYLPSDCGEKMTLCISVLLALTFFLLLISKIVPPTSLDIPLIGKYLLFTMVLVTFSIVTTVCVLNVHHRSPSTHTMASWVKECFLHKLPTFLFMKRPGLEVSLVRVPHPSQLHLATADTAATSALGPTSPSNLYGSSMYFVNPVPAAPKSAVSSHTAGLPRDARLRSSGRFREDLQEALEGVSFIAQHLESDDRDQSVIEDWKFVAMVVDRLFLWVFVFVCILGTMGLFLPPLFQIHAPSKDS
Sequence of Rat Brain α7 nAChR (Q05941 23-502): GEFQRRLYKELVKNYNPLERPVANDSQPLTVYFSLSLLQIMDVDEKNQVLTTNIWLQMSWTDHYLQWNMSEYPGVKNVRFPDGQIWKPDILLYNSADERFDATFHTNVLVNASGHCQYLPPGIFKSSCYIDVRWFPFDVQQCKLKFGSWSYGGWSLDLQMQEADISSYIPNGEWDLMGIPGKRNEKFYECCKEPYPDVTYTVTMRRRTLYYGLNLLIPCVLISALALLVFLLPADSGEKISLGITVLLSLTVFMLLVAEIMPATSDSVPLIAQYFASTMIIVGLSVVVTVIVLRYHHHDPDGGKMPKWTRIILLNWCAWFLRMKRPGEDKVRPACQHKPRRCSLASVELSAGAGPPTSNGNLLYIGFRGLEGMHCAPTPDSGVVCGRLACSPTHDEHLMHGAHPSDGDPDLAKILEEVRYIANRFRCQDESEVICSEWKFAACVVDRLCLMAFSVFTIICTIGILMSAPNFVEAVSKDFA
T7 sequence (Q05941 23-502): as above
T3 sequence (P09483 31-630): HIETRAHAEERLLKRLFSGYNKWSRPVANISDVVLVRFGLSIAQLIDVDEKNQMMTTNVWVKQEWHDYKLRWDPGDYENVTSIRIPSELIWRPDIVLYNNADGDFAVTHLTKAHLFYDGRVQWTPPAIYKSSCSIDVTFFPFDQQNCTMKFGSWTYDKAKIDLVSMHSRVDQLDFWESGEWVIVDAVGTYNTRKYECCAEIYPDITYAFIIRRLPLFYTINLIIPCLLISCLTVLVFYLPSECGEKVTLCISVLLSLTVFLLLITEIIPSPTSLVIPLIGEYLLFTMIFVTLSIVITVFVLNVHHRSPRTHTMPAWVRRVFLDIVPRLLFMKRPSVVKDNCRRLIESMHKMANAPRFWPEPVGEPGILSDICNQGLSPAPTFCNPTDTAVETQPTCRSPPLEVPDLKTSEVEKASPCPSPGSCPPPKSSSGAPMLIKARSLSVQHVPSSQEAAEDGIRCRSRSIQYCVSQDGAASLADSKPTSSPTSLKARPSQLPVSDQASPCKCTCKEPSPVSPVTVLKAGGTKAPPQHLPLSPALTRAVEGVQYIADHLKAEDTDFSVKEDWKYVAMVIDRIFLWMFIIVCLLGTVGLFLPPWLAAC
T3 sequence (P12390 25-500): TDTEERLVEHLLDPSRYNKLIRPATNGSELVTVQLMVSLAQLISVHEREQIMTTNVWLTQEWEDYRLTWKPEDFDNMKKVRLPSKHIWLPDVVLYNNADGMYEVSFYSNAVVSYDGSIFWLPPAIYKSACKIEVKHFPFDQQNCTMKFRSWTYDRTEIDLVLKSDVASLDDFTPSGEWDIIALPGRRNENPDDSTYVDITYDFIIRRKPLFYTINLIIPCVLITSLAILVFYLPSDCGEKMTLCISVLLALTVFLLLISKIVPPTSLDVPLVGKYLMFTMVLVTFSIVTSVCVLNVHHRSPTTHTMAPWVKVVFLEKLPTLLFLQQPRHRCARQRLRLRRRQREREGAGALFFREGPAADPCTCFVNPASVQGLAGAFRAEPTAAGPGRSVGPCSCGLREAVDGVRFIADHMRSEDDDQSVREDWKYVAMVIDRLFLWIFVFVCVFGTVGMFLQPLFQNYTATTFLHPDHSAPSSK
T1 sequence (P25108 21-457): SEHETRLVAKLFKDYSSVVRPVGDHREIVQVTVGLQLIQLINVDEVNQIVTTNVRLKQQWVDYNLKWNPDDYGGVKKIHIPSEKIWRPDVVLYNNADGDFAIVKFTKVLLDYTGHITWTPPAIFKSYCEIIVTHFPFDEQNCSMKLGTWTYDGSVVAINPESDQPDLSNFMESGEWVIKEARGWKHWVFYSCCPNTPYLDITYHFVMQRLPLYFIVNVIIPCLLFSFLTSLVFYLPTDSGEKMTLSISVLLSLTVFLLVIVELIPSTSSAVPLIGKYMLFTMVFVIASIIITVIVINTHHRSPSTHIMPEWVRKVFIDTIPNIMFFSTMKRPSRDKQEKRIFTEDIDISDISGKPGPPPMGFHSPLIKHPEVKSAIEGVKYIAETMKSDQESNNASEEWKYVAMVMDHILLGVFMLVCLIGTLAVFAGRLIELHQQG
T1 sequence (P25109 24-501): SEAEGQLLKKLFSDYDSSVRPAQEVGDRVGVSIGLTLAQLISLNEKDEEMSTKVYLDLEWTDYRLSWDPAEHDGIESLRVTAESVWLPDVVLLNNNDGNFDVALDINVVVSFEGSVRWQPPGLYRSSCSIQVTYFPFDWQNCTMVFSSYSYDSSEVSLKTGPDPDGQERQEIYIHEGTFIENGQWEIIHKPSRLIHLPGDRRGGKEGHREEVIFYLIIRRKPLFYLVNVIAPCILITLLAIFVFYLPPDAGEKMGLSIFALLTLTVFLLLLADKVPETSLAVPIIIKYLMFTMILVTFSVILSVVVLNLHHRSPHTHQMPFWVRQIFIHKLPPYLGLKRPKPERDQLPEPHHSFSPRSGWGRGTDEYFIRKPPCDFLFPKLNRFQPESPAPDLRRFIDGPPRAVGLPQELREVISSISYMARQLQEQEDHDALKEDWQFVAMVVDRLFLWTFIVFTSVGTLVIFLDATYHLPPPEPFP
T1 sequence (P25110 22-517): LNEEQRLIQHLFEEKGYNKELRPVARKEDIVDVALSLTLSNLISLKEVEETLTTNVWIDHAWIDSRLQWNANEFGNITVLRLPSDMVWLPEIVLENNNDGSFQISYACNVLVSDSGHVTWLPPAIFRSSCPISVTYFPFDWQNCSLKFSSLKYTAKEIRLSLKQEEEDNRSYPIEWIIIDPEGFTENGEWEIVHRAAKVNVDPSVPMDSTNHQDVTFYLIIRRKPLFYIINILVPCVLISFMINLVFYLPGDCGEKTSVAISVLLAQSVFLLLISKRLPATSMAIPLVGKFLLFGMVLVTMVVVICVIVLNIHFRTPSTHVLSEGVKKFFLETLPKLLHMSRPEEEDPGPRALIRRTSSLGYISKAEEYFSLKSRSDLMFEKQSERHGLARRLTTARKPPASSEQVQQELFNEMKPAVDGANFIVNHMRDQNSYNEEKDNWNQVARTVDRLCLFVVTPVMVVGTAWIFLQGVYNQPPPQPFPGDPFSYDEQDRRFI
T1 sequence (P09660 21-494): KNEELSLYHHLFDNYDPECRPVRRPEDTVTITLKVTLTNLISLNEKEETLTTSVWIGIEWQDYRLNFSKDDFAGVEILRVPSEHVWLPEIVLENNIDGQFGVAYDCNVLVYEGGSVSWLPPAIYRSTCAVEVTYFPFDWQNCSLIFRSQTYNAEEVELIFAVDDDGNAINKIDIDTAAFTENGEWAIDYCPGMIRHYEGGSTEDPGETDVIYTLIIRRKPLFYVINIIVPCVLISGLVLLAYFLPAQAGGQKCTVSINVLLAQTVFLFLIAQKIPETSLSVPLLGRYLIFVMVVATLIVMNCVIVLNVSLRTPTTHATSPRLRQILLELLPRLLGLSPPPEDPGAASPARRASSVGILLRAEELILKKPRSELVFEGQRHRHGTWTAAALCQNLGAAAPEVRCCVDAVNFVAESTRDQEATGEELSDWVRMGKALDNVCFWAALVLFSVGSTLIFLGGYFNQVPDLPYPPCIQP
T5 sequence (P36544 23-502): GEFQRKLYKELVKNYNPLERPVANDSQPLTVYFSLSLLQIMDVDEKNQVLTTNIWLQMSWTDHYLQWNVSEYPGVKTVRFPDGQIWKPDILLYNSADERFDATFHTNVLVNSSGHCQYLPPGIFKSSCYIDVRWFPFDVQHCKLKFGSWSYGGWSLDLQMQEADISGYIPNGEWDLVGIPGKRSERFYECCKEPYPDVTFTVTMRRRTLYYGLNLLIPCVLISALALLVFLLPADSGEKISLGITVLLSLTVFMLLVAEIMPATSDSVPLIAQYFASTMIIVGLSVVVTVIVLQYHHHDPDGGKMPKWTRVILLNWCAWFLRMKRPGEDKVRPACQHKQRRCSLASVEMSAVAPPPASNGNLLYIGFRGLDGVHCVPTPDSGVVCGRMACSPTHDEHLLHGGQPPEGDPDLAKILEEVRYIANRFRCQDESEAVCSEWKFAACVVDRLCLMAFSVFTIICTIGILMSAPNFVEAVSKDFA
Sequence of HEK293/Human α7 nAChR (P36544 23-502): as above

Clc1ccc(C2CC3CCC2N3)cn1 (racemic) [Epibatidine, (±)epibatidine]
EC50 [1]: > 1000 nM | Ki ([2]; HEK293/Human α7 nAChR Mean ± SD Ki, displacement of [3H]-A-585539): 10.5 ± 1.58 nM | Ki ([2]; HEK293/human α7 nAChR Ki (individual), individual determinations): 9.7 nM (2×) and 12.9 nM and 9.8 nM

CN1CC2CN(c3ccc(-c4ccccc4)nn3)CC2C1.Cl.Cl (centres unmarked) [A-582941, octahydro-2-methyl-5-(6-phenyl-3-pyridazinyl)-pyrrolo[3,4-c]pyrrole dihydrochloride]
EC50 [1, 11]: > 100000 nM | EC50 [3, 12]: > 100000 nM | EC50 [4, 13]: > 100000 nM | Ratio (5-HT3A IC50 / α7 nAChR EC50; functional selectivity) ([5]; FLIPR): 1.1 | IC50 [5, 14]: 102 ± 86 nM | IC50 [5, 15]: 73 nM and 75 nM and 76 nM and 109 nM and 47 nM and 79 nM and 59 nM and 86 nM and 344 nM and 72 nM | Ki ([6]; Rat Brain α7 nAChR Ki (individual)): 23 nM and 20.3 nM | Ki ([6]; Rat Brain α7 nAChR Mean ± SD Ki): 21.7 nM | Ki ([2]; HEK293/Human α7 nAChR Mean ± SD Ki): 82.6 nM | Ki ([2]; HEK293/human α7 nAChR Ki (individual)): 99 nM and 72.5 nM and 76.3 nM

O=C(N[C@H]1CN2CCC1CC2)c1cc2cccc(Cl)c2s1 [EVP-6124, (R)-7-chloro-N-(quinuclidin-3-yl)benzo[b]thiophene-2-carboxamide, reference compound]
EC50 [1, 11]: > 100000 nM | EC50 [3, 12]: > 100000 nM | EC50 [4, 13]: > 100000 nM | IC50 [5, 16]: 4 ± 2.1 nM | IC50 [5, 17]: 6 nM and 3 nM and 1 nM and 5 nM | Net Charge (Current Area) normalized to 300 µM ACh ([7]; 0.03 µM): 0.1633 and 0.2064 and 0.1153 and 0.1342 | Peak Current normalized to 3 mM ACh ([7]; 0.03 µM): 0.0231 and 0.03032 and 0.02328 and 0.01316 | Net Charge (Current Area) normalized to 300 µM ACh ([7]; EVP-6124 series 0.1 µM): 0.8405 and 1.081 and 0.8479 and 0.8723 | Peak Current normalized to 3 mM ACh ([7]; EVP-6124 series 0.1 µM): 0.0485 and 0.06704 and 0.0971 and 0.0413 | Net Charge (Current Area) normalized to 300 µM ACh ([7]; EVP-6124 series 0.3 µM): 1.201 and 1.302 and 1.445 and 1.418 | Peak Current normalized to 3 mM ACh ([7]; EVP-6124 series 0.3 µM): 0.1072 and 0.154 and 0.07666 and 0.07157 | Net Charge (Current Area) normalized to 300 µM ACh ([7]; EVP-6124 series 1 µM): 1.414 and 1.499 and 1.608 and 1.442 | Peak Current normalized to 3 mM ACh ([7]; EVP-6124 series 1 µM): 0.127 and 0.1447 and 0.2547 and 0.1421 | Net Charge (Current Area) normalized to 300 µM ACh ([7]; EVP-6124 series 3 µM): 1.22 and 1.197 and 1.304 and 1.07 | Peak Current normalized to 3 mM ACh ([7]; EVP-6124 series 3 µM): 0.1877 and 0.2441 and 0.3832 and 0.2558 | Net Charge (Current Area) normalized to 300 µM ACh ([7]; EVP-6124 series 10 µM): 0.349 and 0.4055 and 0.3939 and 0.327 | Peak Current normalized to 3 mM ACh ([7]; EVP-6124 series 10 µM): 0.2438 and 0.2654 and 0.4627 and 0.3034 | Mean ± SEM Net Charge Ymax ([7]; Human, normalized to 300 μM ACh): 1.36 ± 0.09 | Mean ± SEM Peak Current Ymaxobs @ 10 μM ([7]; Human, normalized to 3 mM ACh): 0.32 ± 0.05 | EC50 ([7]; Human, read-out: Mean ± SEM Net Charge EC50): 70 ± 20 nM | Ki [8]: 10 nM | Ki [9]: 2.5 nM | Ki ([2]; displacement of [3H]-A-585539, read-out: HEK293/Human α7 nAChR Mean ± SD Ki): 3 ± 1.13 nM | Ki ([2]; individual determinations, read-out: HEK293/human α7 nAChR Ki (individual)): 2.2 nM and 3.8 nM

Cl.O=C(N[C@H]1CN2CCC1CC2)c1ccc(Cl)cc1 [PNU-282987, N-(3R)-1-azabicyclo[2.2.2]oct-3-yl-4-chloro-benzamide hydrochloride]
EC50 [1, 11]: > 100000 nM | EC50 [3, 12]: > 100000 nM | EC50 [4, 13]: > 100000 nM | Ratio (5-HT3A IC50 / α7 nAChR EC50; functional selectivity) ([5]; FLIPR): 264 | IC50 [5, 14]: 24900 nM | IC50 [5, 15]: 32100 nM and 23600 nM and 6350 nM and 38400 nM and 24100 nM

O=C(N[C@@H]1C2CCN(CC2)[C@H]1Cc1cccnc1)c1cc2ccccc2o1 [TC-5619, (2S,3R)-N-[2-(pyridin-3-ylmethyl)-1-azabicyclo[2.2.2]oct-3-yl]benzo[b]furan-2-carboxamide]
EC50 [1]: > 100000 nM | EC50 [3]: > 100000 nM | EC50 [4]: > 100000 nM | IC50 [5, 16]: > 100000 nM | IC50 [5, 17]: > 100000 nM | Net Charge (Current Area) normalized to 300 µM ACh ([10]; 0.001 µM): 0.01291 and 0.1795 and 0.008199 | Peak Current normalized to 3 mM ACh ([10]; 0.001 µM): 0.003543 and 0.01162 and 0.003662 | Net Charge (Current Area) normalized to 300 µM ACh ([10]; 0.003 µM): -0.00013 and 0.03241 and 0.001885 | Peak Current normalized to 3 mM ACh ([10]; 0.003 µM): 0.003116 and 0.008701 and 0.005453 | Net Charge (Current Area) normalized to 300 µM ACh ([10]; 0.01 µM): 0.000016 and 0.002188 and -0.00959 | Peak Current normalized to 3 mM ACh ([10]; 0.01 µM): 0.006073 and 0.007536 and 0.009875 | Net Charge (Current Area) normalized to 300 µM ACh ([10]; 0.03 µM): 0.1492 and 0.1468 and 0.2028 | Peak Current normalized to 3 mM ACh ([10]; 0.03 µM): 0.02004 and 0.01567 and 0.02139 | Mean ± SEM Net Charge Ymax ([10]; Rat, normalized to 300 μM ACh): 1.26 ± 0.02 | Mean ± SEM Peak Current Ymaxobs @ 10 μM ([10]; Rat, normalized to 3 mM ACh): 0.55 ± 0.06 | Net Charge (Current Area) normalized to 300 µM ACh ([10]; TC-5619 series 0.1 µM): 0.6879 and 0.7239 and 0.8481 | Peak Current normalized to 3 mM ACh ([10]; TC-5619 series 0.1 µM): 0.05408 and 0.04485 and 0.05183 | Net Charge (Current Area) normalized to 300 µM ACh ([10]; TC-5619 series 0.3 µM): 1.093 and 1.107 and 1.105 | Peak Current normalized to 3 mM ACh ([10]; TC-5619 series 0.3 µM): 0.1599 and 0.1241 and 0.1149 | Net Charge (Current Area) normalized to 300 µM ACh ([10]; TC-5619 series 1 µM): 1.242 and 1.143 and 1.297 | Peak Current normalized to 3 mM ACh ([10]; TC-5619 series 1 µM): 0.276 and 0.2576 and 0.2679 | Net Charge (Current Area) normalized to 300 µM ACh ([10]; TC-5619 series 3 µM): 1.234 and 1.271 and 1.312 | Peak Current normalized to 3 mM ACh ([10]; TC-5619 series 3 µM): 0.4166 and 0.4279 and 0.4555 | Net Charge (Current Area) normalized to 300 µM ACh ([10]; TC-5619 series 10 µM): 1.226 and 1.317 and 1.306 | Peak Current normalized to 3 mM ACh ([10]; TC-5619 series 10 µM): 0.4847 and 0.4851 and 0.6732 | Ki [8]: 1 nM | Ki ([9]; human 5-HT3A Ki, displacement of [3H]-granisetron): > 10000 nM

C[N+]1(C)CC2CC1CN2c1ccc(-c2ccccc2)nn1 (centres unmarked) [[^3H]-A-585539, ^3H-2,2-dimethyl-5-(6-phenyl-3-pyridazinyl)-5-aza-2-azoniabicyclo[2.2.1]heptane iodide]
Kd ([2]; recombinant human α7 nAChR, n = 2, read-out: mean Kd, saturation binding): 0.656 nM
